For three molecules, Time and Activity results are on record in ChEMBL document CHEMBL3045924, “Synthesis, molecular docking, and cardioprotective activity of 2-methylthio-1,4-dihydropyrimidines” (2012).

What all share (format): functional
For assay [1], the system named is Rattus norvegicus. As to the kind of experiment: Cardioprotective activity in adrenaline-induced MI Rattus norvegicus Sprague-Dawley (rat) model assessed as effect on P-duration at 5 mg/kg, po for 15 days challenged with adrenaline on day 14 and day 15 measured after 24 hr post second adrenaline injection by ECG analysis (reference value: 0.01136 +/- 0.0044 sec).

The test system of assay [2] is Rattus norvegicus. In words: Cardioprotective activity in adrenaline-induced MI Rattus norvegicus Sprague-Dawley (rat) model assessed as decrease in ST interval at 5 mg/kg, po for 15 days challenged with adrenaline on day 14 and day 15 measured after 24 hr post second adrenaline injection by ECG analysis (reference value: 0.0829 +/- 0.0024 sec).
Assay [3] deals with Rattus norvegicus. In words: Cardioprotective activity in adrenaline-induced MI Rattus norvegicus Sprague-Dawley (rat) model assessed as decrease in heart rate at 5 mg/kg, po for 15 days challenged with adrenaline on day 14 and day 15 measured after 24 hr post second adrenaline injection (reference value: 422.76 +/- 6.158 bpm).
Assay [4] deals with Rattus norvegicus. As to the kind of experiment: Cardioprotective activity in adrenaline-induced MI Rattus norvegicus Sprague-Dawley (rat) model assessed as increase in R-R interval at 5 mg/kg, po for 15 days challenged with adrenaline on day 14 and day 15 measured after 24 hr post second adrenaline injection by ECG analysis (reference value: 0.135 +/- 0.0176 sec).
Assay [5] deals with Rattus norvegicus. As to the kind of experiment: Cardioprotective activity in adrenaline-induced MI Rattus norvegicus Sprague-Dawley (rat) model assessed as decrease in QT interval prolongation at 5 mg/kg, po for 15 days challenged with adrenaline on day 14 and day 15 measured after 24 hr post second adrenaline injection by ECG analysis (reference value: 0.08205 +/- 0.0023 sec).

In the case of `COC(=O)C1=C(C)NC(SC)=NC1c1ccc(Cl)cc1` (stereo not given), the Time was 0.01358 s in the assay on Rattus norvegicus [1], 0.0545 s in the assay on Rattus norvegicus [2], 0.1533 s in the assay on Rattus norvegicus [4] and 0.03879 s in the assay with Rattus norvegicus [5]. In addition, the Activity in the assay on Rattus norvegicus [3] came out at 382.03 bpm.

Consider `COC(=O)C1=C(C)NC(C)=C(C(=O)OC)C1c1ccccc1[N+](=O)[O-]` [NIFEDIPINE], for which the Time was found to be 0.01815 s in the assay with Rattus norvegicus [1], 0.0455 s in the assay on Rattus norvegicus [2], 0.2146 s in the assay on Rattus norvegicus [4] and 0.06101 s in the assay with Rattus norvegicus [5]. Moreover, the Activity in the assay with Rattus norvegicus [3] was found to be 278.5 bpm.

For `CCOC(=O)C1=C(C)NC(SC)=NC1c1ccc([N+](=O)[O-])cc1` (stereo not given), the Time was 0.0166 s in the assay on Rattus norvegicus [1], 0.05879 s with Rattus norvegicus [2], 0.1852 s in the assay on Rattus norvegicus [4] and 0.06664 s in the assay with Rattus norvegicus [5]. In the assay on Rattus norvegicus [3], the Activity is recorded as 315.766 bpm.
